Drawing on paper PMC7206119, “RIP1 inhibition blocks inflammatory diseases but not tumor growth or metastases” (Cell Death and Differentiation, 2019), this text covers remaining binding for one compound.

Among the targets are INSR (Homo sapiens, UniProt P06213); PRKCD (Homo sapiens, UniProt Q05655); LATS1 (Homo sapiens, UniProt O95835); MYLK4 (Homo sapiens, UniProt Q86YV6); PAK4 (Homo sapiens, UniProt O96013); FLT3(N841I) (Homo sapiens, UniProt P36888, N841I); RIOK1 (Homo sapiens, UniProt Q9BRS2); SIK2 (Homo sapiens, UniProt Q9H0K1); BMPR2 (Homo sapiens, UniProt Q13873); ANKK1 (Homo sapiens, UniProt Q8NFD2); ULK2 (Homo sapiens, UniProt Q8IYT8); FLT3 (Homo sapiens, UniProt P36888); FLT3(ITD) (Homo sapiens, UniProt P36888, ITD); PIM2 (Homo sapiens, UniProt Q9P1W9); RIOK2 (Homo sapiens, UniProt Q9BVS4); SRC (Homo sapiens, UniProt P12931); TAOK1 (Homo sapiens, UniProt Q7L7X3); CSNK2A2 (Homo sapiens, UniProt P19784).

Test in all cases: biochemical
Holding throughout (set-up): DiscoverX kinase panel, active-site competition binding (KINOMEscan type), percent of control at one concentration
Conditions in all cases: competition binding, percent of control

Another assay concerns the target T1, PFTK1 (Homo sapiens, UniProt O94921).
T1 construct: gene CDK14

The target of a further assay is T2, ERK2 (Homo sapiens, UniProt P28482).
T2 construct: gene MAPK1
T2 sequence (P28482 whole entry): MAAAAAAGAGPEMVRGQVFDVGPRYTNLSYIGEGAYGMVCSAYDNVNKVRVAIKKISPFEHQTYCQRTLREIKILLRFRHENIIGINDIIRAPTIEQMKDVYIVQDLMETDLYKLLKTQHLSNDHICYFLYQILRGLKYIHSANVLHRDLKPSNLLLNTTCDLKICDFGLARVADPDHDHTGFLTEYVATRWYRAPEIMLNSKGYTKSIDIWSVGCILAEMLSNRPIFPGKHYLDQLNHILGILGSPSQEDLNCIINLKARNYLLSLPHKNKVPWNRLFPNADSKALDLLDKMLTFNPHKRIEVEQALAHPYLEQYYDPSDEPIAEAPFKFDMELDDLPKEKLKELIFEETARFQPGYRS

The target in a further assay is T3, PKAC-beta (Homo sapiens, UniProt P22694).
T3 construct: gene PRKACB

The target of the next assay is T4, TRKB (Homo sapiens, UniProt Q16620).
T4 construct: gene NTRK2
T4 sequence (Q16620 whole entry): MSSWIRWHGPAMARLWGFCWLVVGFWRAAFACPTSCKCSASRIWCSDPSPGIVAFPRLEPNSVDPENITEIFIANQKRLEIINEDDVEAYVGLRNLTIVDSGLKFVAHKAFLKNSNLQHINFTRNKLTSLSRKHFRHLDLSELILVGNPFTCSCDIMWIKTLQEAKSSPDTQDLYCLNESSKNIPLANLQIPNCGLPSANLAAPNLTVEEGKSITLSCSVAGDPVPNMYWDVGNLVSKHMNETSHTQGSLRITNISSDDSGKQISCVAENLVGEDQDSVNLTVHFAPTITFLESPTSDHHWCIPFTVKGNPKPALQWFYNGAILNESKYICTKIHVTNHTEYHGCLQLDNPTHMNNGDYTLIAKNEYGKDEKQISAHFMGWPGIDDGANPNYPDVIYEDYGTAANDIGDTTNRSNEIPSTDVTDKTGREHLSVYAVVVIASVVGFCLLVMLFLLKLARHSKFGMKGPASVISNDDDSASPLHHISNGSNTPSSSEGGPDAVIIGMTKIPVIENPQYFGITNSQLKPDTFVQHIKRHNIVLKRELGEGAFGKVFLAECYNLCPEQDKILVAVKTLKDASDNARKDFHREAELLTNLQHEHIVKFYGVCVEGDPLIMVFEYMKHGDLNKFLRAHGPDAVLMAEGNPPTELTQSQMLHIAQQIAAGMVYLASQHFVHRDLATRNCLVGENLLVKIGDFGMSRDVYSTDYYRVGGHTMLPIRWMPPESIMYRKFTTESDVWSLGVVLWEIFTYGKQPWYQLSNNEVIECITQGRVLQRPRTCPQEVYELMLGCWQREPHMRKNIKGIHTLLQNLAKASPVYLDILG

Sequence of RIOK1 (Q9BRS2 whole entry): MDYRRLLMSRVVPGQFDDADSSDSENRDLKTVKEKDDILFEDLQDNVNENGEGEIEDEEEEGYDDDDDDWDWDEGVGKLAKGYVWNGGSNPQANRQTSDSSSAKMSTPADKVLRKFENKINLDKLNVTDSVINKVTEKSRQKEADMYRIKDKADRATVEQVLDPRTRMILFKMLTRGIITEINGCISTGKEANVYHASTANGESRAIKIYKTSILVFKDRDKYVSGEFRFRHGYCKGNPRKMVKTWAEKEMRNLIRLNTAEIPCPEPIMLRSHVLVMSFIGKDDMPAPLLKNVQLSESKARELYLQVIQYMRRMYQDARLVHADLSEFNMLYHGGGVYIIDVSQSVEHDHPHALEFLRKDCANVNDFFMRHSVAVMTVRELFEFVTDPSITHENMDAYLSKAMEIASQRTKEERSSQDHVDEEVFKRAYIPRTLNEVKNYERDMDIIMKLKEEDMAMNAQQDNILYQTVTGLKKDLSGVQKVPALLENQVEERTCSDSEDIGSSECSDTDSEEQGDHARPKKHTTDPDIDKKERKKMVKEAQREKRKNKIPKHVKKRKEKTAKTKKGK
Sequence of LATS1 (O95835 whole entry): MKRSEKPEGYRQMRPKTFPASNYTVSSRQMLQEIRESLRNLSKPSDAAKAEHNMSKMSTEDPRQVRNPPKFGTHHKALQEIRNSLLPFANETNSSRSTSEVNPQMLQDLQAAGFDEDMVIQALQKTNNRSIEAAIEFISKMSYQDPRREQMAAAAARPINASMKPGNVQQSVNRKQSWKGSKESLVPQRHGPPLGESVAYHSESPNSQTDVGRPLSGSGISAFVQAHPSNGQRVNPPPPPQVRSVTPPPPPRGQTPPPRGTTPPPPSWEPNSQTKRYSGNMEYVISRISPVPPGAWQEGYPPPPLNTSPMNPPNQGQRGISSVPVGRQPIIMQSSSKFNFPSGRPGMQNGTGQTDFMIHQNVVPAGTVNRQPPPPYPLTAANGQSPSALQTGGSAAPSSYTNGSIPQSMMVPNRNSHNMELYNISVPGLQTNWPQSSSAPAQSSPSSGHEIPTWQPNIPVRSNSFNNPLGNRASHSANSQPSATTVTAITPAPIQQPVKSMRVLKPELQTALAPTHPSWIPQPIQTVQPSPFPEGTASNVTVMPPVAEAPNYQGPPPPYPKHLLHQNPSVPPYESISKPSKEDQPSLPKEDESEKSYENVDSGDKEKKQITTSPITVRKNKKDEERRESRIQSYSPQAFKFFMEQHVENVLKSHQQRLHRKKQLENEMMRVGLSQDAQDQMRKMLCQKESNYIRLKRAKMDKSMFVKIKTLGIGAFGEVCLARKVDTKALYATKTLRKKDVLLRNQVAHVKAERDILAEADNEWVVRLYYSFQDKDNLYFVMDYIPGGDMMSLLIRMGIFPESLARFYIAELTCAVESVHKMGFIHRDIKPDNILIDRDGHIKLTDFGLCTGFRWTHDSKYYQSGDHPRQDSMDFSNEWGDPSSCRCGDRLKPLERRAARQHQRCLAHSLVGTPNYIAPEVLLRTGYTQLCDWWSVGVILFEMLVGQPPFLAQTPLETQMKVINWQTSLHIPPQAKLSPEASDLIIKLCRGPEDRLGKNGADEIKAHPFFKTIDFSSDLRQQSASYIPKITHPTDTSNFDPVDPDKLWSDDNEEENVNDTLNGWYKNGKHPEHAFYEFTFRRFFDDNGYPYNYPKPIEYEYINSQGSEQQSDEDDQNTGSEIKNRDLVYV
Sequence of PAK4 (O96013 whole entry): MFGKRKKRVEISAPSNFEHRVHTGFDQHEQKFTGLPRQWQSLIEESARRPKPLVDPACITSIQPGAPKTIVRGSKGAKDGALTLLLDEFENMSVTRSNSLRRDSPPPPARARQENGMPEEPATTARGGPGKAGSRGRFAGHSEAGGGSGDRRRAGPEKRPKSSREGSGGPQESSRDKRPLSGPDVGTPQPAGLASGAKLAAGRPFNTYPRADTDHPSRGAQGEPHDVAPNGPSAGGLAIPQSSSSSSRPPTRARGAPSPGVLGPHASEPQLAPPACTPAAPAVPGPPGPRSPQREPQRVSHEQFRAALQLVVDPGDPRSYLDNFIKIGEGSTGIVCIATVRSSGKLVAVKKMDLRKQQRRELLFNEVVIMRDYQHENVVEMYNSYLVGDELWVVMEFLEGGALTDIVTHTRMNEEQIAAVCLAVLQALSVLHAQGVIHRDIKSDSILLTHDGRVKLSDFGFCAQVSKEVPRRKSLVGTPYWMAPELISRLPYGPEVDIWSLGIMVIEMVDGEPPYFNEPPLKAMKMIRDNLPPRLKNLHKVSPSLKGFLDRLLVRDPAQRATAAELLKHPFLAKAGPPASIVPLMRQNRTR
Sequence of MYLK4 (Q86YV6 whole entry): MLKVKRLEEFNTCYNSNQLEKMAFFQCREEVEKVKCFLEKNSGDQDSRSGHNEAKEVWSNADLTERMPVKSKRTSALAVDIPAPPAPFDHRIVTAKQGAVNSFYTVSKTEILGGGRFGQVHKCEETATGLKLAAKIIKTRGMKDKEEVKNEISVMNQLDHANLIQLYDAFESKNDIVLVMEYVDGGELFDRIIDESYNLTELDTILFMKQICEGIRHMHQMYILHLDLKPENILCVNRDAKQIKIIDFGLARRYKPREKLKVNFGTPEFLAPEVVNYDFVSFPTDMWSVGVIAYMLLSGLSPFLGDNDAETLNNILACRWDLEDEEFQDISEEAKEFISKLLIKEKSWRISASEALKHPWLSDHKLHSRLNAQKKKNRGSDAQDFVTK
Sequence of RIOK2 (Q9BVS4 whole entry): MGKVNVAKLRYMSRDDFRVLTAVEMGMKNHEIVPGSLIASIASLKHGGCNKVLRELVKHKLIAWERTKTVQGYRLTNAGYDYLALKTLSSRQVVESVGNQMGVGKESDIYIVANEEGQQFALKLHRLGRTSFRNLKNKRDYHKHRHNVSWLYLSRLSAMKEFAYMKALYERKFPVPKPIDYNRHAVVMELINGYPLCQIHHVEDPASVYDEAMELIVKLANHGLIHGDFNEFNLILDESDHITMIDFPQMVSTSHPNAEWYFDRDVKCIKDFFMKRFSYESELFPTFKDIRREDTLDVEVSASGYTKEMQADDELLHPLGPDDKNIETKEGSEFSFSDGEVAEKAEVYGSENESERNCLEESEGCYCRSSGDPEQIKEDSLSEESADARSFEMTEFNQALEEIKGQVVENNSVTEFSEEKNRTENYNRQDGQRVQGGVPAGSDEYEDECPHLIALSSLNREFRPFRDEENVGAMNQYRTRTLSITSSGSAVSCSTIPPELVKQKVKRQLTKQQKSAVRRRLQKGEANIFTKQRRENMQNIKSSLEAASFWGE
Sequence of PIM2 (Q9P1W9 whole entry): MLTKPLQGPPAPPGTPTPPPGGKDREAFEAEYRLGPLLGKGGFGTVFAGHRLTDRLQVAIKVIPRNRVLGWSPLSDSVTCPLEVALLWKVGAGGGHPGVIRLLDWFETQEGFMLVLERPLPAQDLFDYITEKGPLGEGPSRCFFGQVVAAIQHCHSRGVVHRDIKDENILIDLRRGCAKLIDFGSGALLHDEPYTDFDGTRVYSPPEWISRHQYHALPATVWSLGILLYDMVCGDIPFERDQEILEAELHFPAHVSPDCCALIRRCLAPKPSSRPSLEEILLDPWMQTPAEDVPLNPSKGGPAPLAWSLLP

For `COc1cc2c(cn1)N(C)C(=O)[C@@H](NC(=O)c1nc3n(n1)[C@H](c1ccccc1)CC3)CC2` [GNE684, (S)-N-((S)-7-methoxy-1-methyl-2-oxo-2,3,4,5-tetrahydro-1H-pyrido[3,4-b]azepin-3-yl)-5-phenyl-6,7-dihydro-5H-pyrrolo[1,2-b][1,2,4]triazole-2-carboxamide], the remaining binding at 10 µM on INSR is 90%; on PFTK1 it was 79%; on PRKCD, 86%; at ERK2, 100%; at LATS1, 89%; at MYLK4, 100%. Further, the remaining binding at 10 µM on PAK4 stood at 93%; on FLT3(N841I), 100%; on RIOK1 it was 84%; on SIK2, 98%; on PKAC-beta, 72%; at BMPR2, 100%. Also, the remaining binding at 10 µM at ANKK1 came out at 98%; on ULK2 it was 100%; on FLT3, 87%; at FLT3(ITD), 100%; at PIM2, 71%; at RIOK2, 28%. Besides, the remaining binding at 10 µM at TRKB is 83%; at SRC it was 72%; on TAOK1, 100%; on CSNK2A2 it was 85%.
